From patent US20250215029A1 (Recludix Pharma, Inc., priority 2022, published 2025)
Like-named read-outs stand apart in the source and are kept apart here.

Assays:
[1] = molecular target: T1, Recombinant STAT3 protein (STAT3 (G127-I722)) (Homo sapiens, UniProt P40763); assay: STAT3 Fluorescence Polarization (FP) Assay; assay type: binding; conditions: probe 5-FAM-GpYLPQTV-NH2 2 nM, 45-minute incubation
T1 construct: Recombinant STAT3 protein (STAT3 (G127-I722))
Outline: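 Compounds in serial dilution receive a premix of STAT3 (G127-I722, 25 nM) and fluorescent phosphotyrosine peptide 5-FAM-GpYLPQTV-NH2 (2 nM) at pH 7.4. After 45 min at room temperature, FP is measured and IC50 derived by nonlinear regression.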

[2] = molecular target: T2, Recombinant STAT6 protein (STAT6 (W123-T658)) (Homo sapiens, UniProt P42226); assay: STAT6 Fluorescence Polarization (FP) Assay; assay type: binding; conditions: probe 5-FAM-Ap[…]-NH2 2 nM, 45-minute incubation
T2 construct: Recombinant STAT6 protein (STAT6 (W123-T658))
T2 sequence (P42226 123-658): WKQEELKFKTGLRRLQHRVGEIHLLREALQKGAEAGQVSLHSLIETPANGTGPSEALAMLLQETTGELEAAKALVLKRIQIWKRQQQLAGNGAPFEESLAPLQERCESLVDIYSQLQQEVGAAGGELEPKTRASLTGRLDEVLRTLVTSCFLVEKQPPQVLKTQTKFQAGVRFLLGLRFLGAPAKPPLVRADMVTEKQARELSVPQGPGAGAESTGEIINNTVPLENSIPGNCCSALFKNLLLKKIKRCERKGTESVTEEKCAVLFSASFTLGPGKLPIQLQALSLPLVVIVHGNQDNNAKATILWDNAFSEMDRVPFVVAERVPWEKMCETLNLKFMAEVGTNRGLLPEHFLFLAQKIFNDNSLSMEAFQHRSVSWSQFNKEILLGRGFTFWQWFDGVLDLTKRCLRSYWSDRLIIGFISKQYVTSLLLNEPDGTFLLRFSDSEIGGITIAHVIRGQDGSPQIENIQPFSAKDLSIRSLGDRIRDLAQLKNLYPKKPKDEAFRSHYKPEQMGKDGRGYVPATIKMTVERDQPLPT
Outline: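 Serially diluted compounds received a premix of STAT6 (W123-T658, 250 nM) and 5-FAM peptide probe (2 nM) in pH 7.4 HEPES buffer containing DTT and Tween 20. Following 45 min at room temperature, FP was recorded. IC50s were fitted by nonlinear regression; values are binned A (≤300 nM), B (>300-3000 nM), C (>3-30 μM), D (>30 μM).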

[3] = STAT3 (G127-I722) 25 nM, read-out: STAT3 (FP assay IC50 class)
[4] = STAT6 (W123-T658) 250 nM, read-out: STAT6 (FP assay IC50 class)
[5] = STAT3 25 nM, read-out: STAT3 (FP assay IC50)
[6] = STAT6 250 nM, read-out: STAT6 (FP assay IC50)

T1 sequence (P40763 127-722): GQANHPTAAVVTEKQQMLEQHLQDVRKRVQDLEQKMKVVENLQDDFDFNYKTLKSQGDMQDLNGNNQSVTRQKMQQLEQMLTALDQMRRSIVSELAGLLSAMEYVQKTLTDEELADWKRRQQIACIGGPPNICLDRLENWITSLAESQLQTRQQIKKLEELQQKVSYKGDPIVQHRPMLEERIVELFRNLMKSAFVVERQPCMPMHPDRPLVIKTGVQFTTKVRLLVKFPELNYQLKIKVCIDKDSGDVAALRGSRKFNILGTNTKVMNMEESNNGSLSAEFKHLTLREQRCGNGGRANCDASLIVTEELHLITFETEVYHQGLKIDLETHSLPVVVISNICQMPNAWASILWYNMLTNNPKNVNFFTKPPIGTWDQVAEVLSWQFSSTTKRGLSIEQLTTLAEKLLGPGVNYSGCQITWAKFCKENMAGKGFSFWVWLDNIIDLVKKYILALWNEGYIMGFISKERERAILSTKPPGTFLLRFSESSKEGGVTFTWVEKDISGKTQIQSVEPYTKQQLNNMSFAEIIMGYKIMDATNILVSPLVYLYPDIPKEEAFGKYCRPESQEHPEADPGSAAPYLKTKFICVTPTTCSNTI

Row | Structure (SMILES) | IC50 [1, 3] | IC50 [2, 4] | IC50 [1, 5] | IC50 [2, 6]
1 | CCOc1c(F)cncc1C1CN(C(=O)[C@@H]2CC[C@@H]3CCC[C@H](NC(=O)c4cc5cc([C@@H](F)P(=O)(O)O)ccc5s4)C(=O)N32)C1 [Compound 928, ((S)-(2-(((3S,6S,9aS)-3-(3-(4-ethoxy-5-fluoropyridin-3-yl)azetidine-1-carbonyl)-5-oxooctahydro-1H-pyrrolo[1,2-a]azepin-6-yl)carbamoyl)benzo [b]thiophen-5-yl)fluoromethyl) phosphonic acid] | 1 to 10 µM | 3 to 30 µM | – | –
2 | O=C(N[C@H]1CCC[C@H]2CC[C@@H](C(=O)N3CC(O)(c4ccccn4)C3)N2C1=O)c1cc2cc(C(F)(F)P(=O)(O)O)ccc2s1 [Compound 45, (difluoro(2-(((3S,6S,9aS)-3-(3-hydroxy-3-(pyridin-2-yl)azetidine-1-carbonyl)-5-oxooctahydro-1H-pyrrolo[1,2-a]azepin-6-yl)carbamoyl)benzo[b]thiophen-5-yl)methyl) phosphonic acid] | – | – | < 0.1 µM | 0.3 to 3 µM
3 | O=C(N[C@H]1CCC[C@H]2CC[C@@H](C(=O)Nc3ccc(-c4ccccc4)cc3)N2C1=O)c1cc2cc(C(F)(F)P(=O)(O)O)ccc2s1 [Compound 121, ((2-(((3S,6S,9aS)-3-([1,1′-biphenyl]-4-ylcarbamoyl)-5-oxooctahydro-1H-pyrrolo[1,2-a]azepin-6-yl)carbamoyl)benzo[b]thiophen-5-yl)difluoromethyl) phosphonic acid] | – | – | 0.1 to 1 µM | 0.3 to 3 µM
4 | C/C1=C/[C@H]2CC[C@@H](C(=O)N3CC(c4cnccc4C)C3)N2C(=O)[C@@H](NC(=O)c2cc3cc(CP(=O)(O)O)ccc3s2)CC1 [Compound 644, ((2-(((3S,6S,10aR,Z)-9-methyl-3-(3-(4-methylpyridin-3-yl)azetidine-1-carbonyl)-5-oxo-1,2,3,5,6,7,8,10a-octahydropyrrolo[1,2-a]azocin-6-yl)carbamoyl)benzo [b]thiophen-5-yl)methyl) phosphonic acid] | 0.1 to 1 µM | 3 to 30 µM | – | –
5 | COC(=O)N1C[C@H](NC(=O)[C@@H]2CC[C@@H]3CCCC[C@H](NC(=O)c4cc5cc(C(F)P(=O)(O)O)ccc5s4)C(=O)N32)[C@@H](F)C1 (stereo partly drawn) [Compound 525, (fluoro(2-(((3S,6S,10aS)-3-(((3S,4S)-4-fluoro-1-(methoxycarbonyl)pyrrolidin-3-yl)carbamoyl)-5-oxodecahydropyrrolo[1,2-a]azocin-6-yl)carbamoyl)benzo[b]thiophen-5-yl)methyl)phosphonic acid] | 1 to 10 µM | 0.3 to 3 µM | – | –
6 | O=C(N[C@H]1CCCC[C@H]2CC[C@@H](C(=O)Nc3ccc4c(c3)CCCS4(=O)=O)N2C1=O)c1cc2cc(C(F)(F)P(=O)(O)O)ccc2s1 [Compound 58, ((2-(((3S,6S,10aS)-3-((1,1-dioxidothio-chroman-6-yl)carbamoyl)-5-oxodecahydropyrrolo [1,2-a]azocin-6-yl)carbamoyl)benzo[b]thiophen-5-yl)difluoro-methyl)phosphonic acid] | – | – | 0.1 to 1 µM | 0.3 to 3 µM
7 | Cc1[nH]nc2ccc(NC(=O)[C@@H]3CC[C@@H]4CCCC[C@H](NC(=O)c5cc6cc(C(F)(F)P(=O)(O)O)ccc6s5)C(=O)N43)cc12 [Compound 59, (difluoro(2-(((3S,6S,10aS)-3-((3-methyl-2H-indazol-5-yl)carbamoyl)-5-oxodecahydro-pyrrolo[1,2-a]azocin-6-yl)carbamoyl)benzo[b]thiophen-5-yl)methyl) phosphonic acid] | – | – | 0.1 to 1 µM | 0.3 to 3 µM
8 | CC(C)Oc1ccncc1C1CN(C(=O)[C@@H]2CC[C@@H]3CCC[C@H](NC(=O)c4cc5cc(C(F)P(=O)(O)O)ccc5s4)C(=O)N32)C1 (stereo partly drawn) [Compound 612, (fluoro(2-(((3S,6S,9aS)-3-(3-(4-isopropoxypyridin-3-yl)azetidine-1-carbonyl)-5-oxooctahydro-1H-pyrrolo[1,2-a]azepin-6-yl)carbamoyl)benzo [b]thiophen-5-yl)methyl) phosphonic acid] | < 0.1 µM | 3 to 30 µM | – | –
9 | COC1(c2cccnc2)CN(C(=O)[C@@H]2CC[C@@H]3CCCC[C@H](NC(=O)c4cc5cc(CP(=O)(O)O)ccc5s4)C(=O)N32)C1 [Compound 651, ((2-(((3S,6S,10aS)-3-(3-methoxy-3-(pyridin-3-yl)azetidine-1-carbonyl)-5-oxodecahydropyrrolo [1,2-a]azocin-6-yl)carbamoyl)benzo [b]thiophen-5-yl)methyl) phosphonic acid] | 1 to 10 µM | 3 to 30 µM | – | –

Further lines, results first:

Row | IC50 [1, 3] | IC50 [2, 4] | IC50 [1, 5] | IC50 [2, 6] | Structure (SMILES)
10 | 0.1 to 1 µM | 3 to 30 µM | – | – | Cc1cccnc1N1CC[C@@H](NC(=O)[C@@H]2CC[C@@H]3CCCC[C@H](NC(=O)c4cc5cc(C(F)P(=O)(O)O)ccc5s4)C(=O)N32)C1 (stereo partly drawn) [Compound 534, (fluoro(2-(((3S,6S,10aS)-3-(((R)-1-(3-methylpyridin-2-yl)pyrrolidin-3-yl)carbamoyl)-5-oxodecahydropyrrolo[1,2-a]azocin-6-yl)carbamoyl)benzo[b]thiophen-5-yl)methyl)phosphonic acid]
11 | 0.1 to 1 µM | 3 to 30 µM | – | – | O=C(N[C@H]1CCC[C@H]2CC[C@@H](C(=O)N3CC(c4ncncc4F)C3)N2C1=O)c1cc2cc(C(F)P(=O)(O)O)ccc2s1 (stereo partly drawn) [Compound 583, (fluoro(2-(((3S,6S,9aS)-3-(3-(5-fluoropyrimidin-4-yl)azetidine-1-carbonyl)-5-oxooctahydro-1H-pyrrolo[1,2-a]azepin-6-yl)carbamoyl)benzo[b]thiophen-5-yl)methyl)phosphonic acid]
12 | < 0.1 µM | 3 to 30 µM | – | – | COc1ccncc1C1CN(C(=O)[C@@H]2CC[C@@H]3C[C@@H](C(C)C)CC[C@H](NC(=O)c4cc5cc(C(F)P(=O)(O)O)ccc5s4)C(=O)N32)C1 (stereo partly drawn) [Compound 246, (fluoro(2-(((3S,6S,9S,10aR)-9-isopropyl-3-(3-(4-methoxypyridin-3-yl)azetidine-1-carbonyl)-5-oxodecahydropyrrolo[1,2-a]azocin-6-yl)carbamoyl)benzo[b]thiophen-5-yl)methyl)phosphonic acid]
13 | < 0.1 µM | 3 to 30 µM | – | – | Cn1cccc(C2CN(C(=O)[C@@H]3CC[C@@H]4CCC[C@H](NC(=O)c5cc6cc(C(F)P(=O)(O)O)ccc6s5)C(=O)N43)C2)c1=O (stereo partly drawn) [Compound 628, (fluoro(2-(((3S,6S,9aS)-3-(3-(1-methyl-2-oxo-1,2-dihydropyridin-3-yl)azetidine-1-carbonyl)-5-oxooctahydro-1H-pyrrolo[1,2-a]azepin-6-yl)carbamoyl)benzo [b]thiophen-5-yl)methyl) phosphonic acid]
14 | – | – | 0.1 to 1 µM | ≤ 0.3 µM | N#C[C@@H]1CN(C(=O)[C@@H]2CC[C@@H]3CCC[C@H](NC(=O)c4cc5cc(C(F)(F)P(=O)(O)O)ccc5s4)C(=O)N32)C[C@H]1c1ccccc1 (relative stereo) [Compound 96, ((2-(((3S,6S,9aS)-3-(rel-(trans)-3-cyano-4-phenylpyrrolidine-1-carbonyl)-5-oxooctahydro-1H-pyrrolo [1,2-a]azepin-6-yl)carbamoyl)benzo[b]thiophen-5-yl)difluoromethyl) phosphonic acid]
15 | 0.1 to 1 µM | 3 to 30 µM | – | – | COCC(=O)NC1(c2ccccn2)CN(C(=O)[C@@H]2CC[C@@H]3CCCC[C@H](NC(=O)c4cc5cc(C(F)P(=O)(O)O)ccc5s4)C(=O)N32)C1 (stereo partly drawn) [Compound 567, (fluoro(2-(((3S,6S,10aS)-3-(3-(2-methoxyacetamido)-3-(pyridin-2-yl)azetidine-1-carbonyl)-5-oxodecahydropyrrolo[1,2-a]azocin-6-yl)carbamoyl)benzo[b]thiophen-5-yl)methyl)phosphonic acid]
16 | 1 to 10 µM | ≤ 0.3 µM | – | – | N#C[C@H]1[C@H](c2ccccc2)CN(C(=O)[C@@H]2CC[C@@H]3C[C@@H](N4CCC4)CC[C@H](NC(=O)c4cc5cc([C@@H](F)P(=O)(O)O)ccc5s4)C(=O)N32)C12CC2 (single isomer, unassigned) [Compound 937]
17 | – | – | 1 to 10 µM | ≤ 0.3 µM | N#C[C@@H]1CN(C(=O)[C@@H]2CC[C@@H]3CCCC[C@H](NC(=O)c4cc5cc(C(F)(F)P(=O)(O)O)ccc5s4)C(=O)N32)C[C@H]1c1ccccc1 (single isomer, unassigned) [Compound 22, ((2-(((3S,6S,10aS)-3-((3S,4R or 3R,4S))-3-cyano-4-phenylpyrrolidine-1-carbonyl)-5-oxodecahydropyrrolo [1,2-a]azocin-6-yl)carbamoyl)benzo[b]thiophen-5-yl) difluoromethyl) phosphonic acid]
